Like-named read-outs stand apart in the source and are kept apart here.
Tests used:
rgRSV224 = assay: microbe, parasite or virus in culture; assay type: cell-based, respiratory syncytial virus; details: for EC50: human respiratory syncytial virus, HeLa
[1] = system: rgRSV224 D489Y mutant strain; assay type: cell-based, respiratory syncytial virus
[2] = system: rgRSV224 L141W mutant strain; assay type: cell-based, respiratory syncytial virus; details: mutant selected with JNJ-53718678
in vivo [3] = details: male, Beagle, dog
[4] = system: RSV-induced cellular influx in the lungs; assay: Measurement of cellular influx into the lungs of RSV-infected BALB/c mice; assay type: in vivo
[5] = target: T1, prefusion D489Y mutant RSV F (DS-Cav1) (Human respiratory syncytial virus A, UniProt P03420, D489Y/I379V/M447V/S155C/S190F/S290C/V207L); assay type: binding; details: ITC; 1:1 fits could not be determined
T1 construct: purification tags incl; made in house; host or cells: FreeStyle 293 F cells, with kifunensine
T1 sequence (P03420 26-109, stated change not applied): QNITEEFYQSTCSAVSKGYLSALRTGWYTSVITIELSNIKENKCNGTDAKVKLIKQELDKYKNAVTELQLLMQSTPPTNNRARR
T1 sequence (P03420 137-513, looked up, stated change not applied): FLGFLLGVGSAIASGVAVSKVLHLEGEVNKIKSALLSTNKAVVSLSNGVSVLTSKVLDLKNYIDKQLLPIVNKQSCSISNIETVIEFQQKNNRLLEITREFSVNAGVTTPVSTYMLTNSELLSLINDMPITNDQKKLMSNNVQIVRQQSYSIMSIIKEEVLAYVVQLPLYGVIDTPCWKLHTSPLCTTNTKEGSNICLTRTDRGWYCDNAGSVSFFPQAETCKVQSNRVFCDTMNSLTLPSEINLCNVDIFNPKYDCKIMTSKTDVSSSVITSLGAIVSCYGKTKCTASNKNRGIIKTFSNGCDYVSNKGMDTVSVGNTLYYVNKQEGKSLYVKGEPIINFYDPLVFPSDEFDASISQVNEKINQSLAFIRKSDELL

D489Y mutant RSV = assay type: cell-based, respiratory syncytial virus; details: A549 cells, time-lapse imaging 48 h
CVB = CVB assay in Vero Bayer cells; assay type: cell-based, Coxsackie virus B4; details: Enterovirus B, mean of at least 3 experiments
[6] = Cytotoxicity in non-infected MT4-LTR-Luc cells; assay type: cell-based; details: human, mean of at least 3 experiments, read-out: CC50 (HIV-1 row)
Experimental: (§1) Briefly, white 384-well plates were filled in quadruplicate using a customized robot system with serial fourfold dilutions of compound in a final volume of 10 µl culture medium. Then, 15 µl of a MT4-LTR-Luc cell suspension (4 × 10^5 cells per ml) in culture medium was added to each well followed by the addition of 15 µl HIV IIIB virus (MOI = 0.0125) in culture medium using a multidrop dispenser. […] The CC50 value was calculated on the basis of the difference of luminescence between non-treated and compound-treated cells.

in vitro [7] = details: African green monkey
recombinant MV = assay: MV assay in Vero/hSLAM cells; details: Measles morbillivirus, Vero, read-out: EC50 MV
L141W mutant RSV = assay type: cell-based, respiratory syncytial virus; details: A549 cells, time-lapse imaging 48 h
recombinant PIV-3 strain = assay: microbe, parasite or virus in culture; assay type: cell-based, human parainfluenza virus 3; details: Human respirovirus 3, Vero; mean of at least 3 experiments
HRV 1b = assay: HRV assay (CPE, HeLa RH cells), HRV 1b; details: Rhinovirus A, read-out: EC50 HRV 1b
Experimental: (§2) After 3 days of incubation at 33 °C, cytopathic effect (CPE) was quantified by measuring the ATP content in compound-treated and non-treated cells with ATPlite kit according to the manufacturer’s instructions. Cytotoxicity of the compound was determined in a parallel set of plates mock-infected with cell culture medium. After 3 days of incubation at 33 °C, ATP content in compound-treated and non-treated cells was quantified with ATPlite kit.

CMV-AD169-eGFP virus = assay: microbe, parasite or virus in culture; assay type: cell-based, cytomegalovirus; details: Human betaherpesvirus 5, AD169, HEL 299; mean of at least 3 experiments
[8] = target: T2, prefusion L141W mutant RSV F (DS-Cav1) (Human respiratory syncytial virus A, UniProt P03420, I379V/L141W/M447V/S155C/S190F/S290C/V207L); assay type: binding; details: ITC; 1:1 fits could not be determined
T2 construct: purification tags incl; made in house; host or cells: FreeStyle 293 F cells, with kifunensine
T2 sequence (P03420 137-513, looked up, stated change not applied): as above
T2 sequence (P03420 26-109, stated change not applied): as the sequence (P03420 26-109, stated change not applied) above

[9] = target: T3, prefusion-stabilized RSV F protein (DS-Cav1) (Human respiratory syncytial virus A, UniProt P03420, I379V/M447V/S155C/S190F/S290C/V207L); assay: biochemical; assay type: binding; details: ITC
T3 construct: purification tags incl; made in house; host or cells: FreeStyle 293 F cells, with kifunensine
T3 sequence (P03420 137-513, looked up, stated change not applied): as the sequence (P03420 137-513, looked up, stated change not applied) above
T3 sequence (P03420 26-109, stated change not applied): as the sequence (P03420 26-109, stated change not applied) above

RSV A and B strains = details: HeLa cells
Experimental: Briefly, black 384-well clear-bottom microtiter plates were filled in quadruplicate using a customized robot system with serial fourfold dilutions of compound in a final volume of 200 nl dimethylsulfoxide (DMSO). Then, 20 µl of a HeLa cell suspension (5 × 10^4 cells ml^−1) in culture medium was added to each well followed by the addition of 20 µl RSV (multiplicity of infection, MOI = 0.02) in culture medium, or 20 µl culture medium for cell controls, using a multidrop dispenser. […] In parallel, compounds were incubated for 3 days in a set of white 384-well microtiter plates and the cytotoxicity of compounds in HeLa cells (CC50) was determined by measuring the adenosine triphosphate (ATP) content of the cells using the ATPlite kit (PerkinElmer, Waltham, MA) according to the manufacturer’s instructions. The activity of the compound against non-recombinant RSV A and B strains was determined similarly by plaque assay[70].

RSV M37 strain = assay: In vivo efficacy in RSV-infected neonatal lambs
HRV 16 = assay: HRV assay (CPE, HeLa RH cells), HRV 16; details: Rhinovirus A, read-out: EC50 HRV 16
Experimental: as §2

Long strain RSV = assay: In vivo efficacy in RSV-infected cotton rats; parameters: species or system Sigmodon hispidus cotton rats
recombinant hMPV = assay: microbe, parasite or virus in culture; assay type: cell-based; details: human metapneumovirus, Vero/TMPRSS2; mean of at least 3 experiments
post-fusion RSV F = assay type: binding; details: ITC
[10] = system: RSV-induced pro-inflammatory cytokines and chemokines; assay: Cytokine and chemokine analysis in RSV-infected BALB/c mice; assay type: in vivo; details: single 40 mg kg−1 p.o. 1 h before infection, Day 6, mean ± s.e.m., n=6
in vitro [11] = details: African green monkey; remark: listed apart in the source
HeLa RH cells = details: human, 3 days
Experimental: as §2

[12] = system: HCV genotype 1b subgenomic replicon; assay: microbe, parasite or virus in culture; assay type: cell-based; details: Hepatitis C virus; mean of at least 3 experiments
in vitro [13] = details: human
Experimental: Briefly, 96-well plates were filled with 100 µl/well of HepG2.117 cells (2 × 10^4 cells per well) and incubated overnight at 37 °C in a humidified atmosphere containing 5% CO2.

[14] = target: T4, full-length wild-type RSV F protein (Human respiratory syncytial virus A, UniProt P03420); assay: Membrane-bound F protein stability assay (heat-shock flow cytometry, HEK293T cells); assay type: cell-based; details: 55 °C for 10 min
T4 construct: The full-length wild-type RSV F protein was transiently expressed in HEK293T cells; expressed in transfected cells; host or cells: HEK293T
T4 sequence (P03420 26-109): as the sequence (P03420 26-109, stated change not applied) above
T4 sequence (P03420 137-574): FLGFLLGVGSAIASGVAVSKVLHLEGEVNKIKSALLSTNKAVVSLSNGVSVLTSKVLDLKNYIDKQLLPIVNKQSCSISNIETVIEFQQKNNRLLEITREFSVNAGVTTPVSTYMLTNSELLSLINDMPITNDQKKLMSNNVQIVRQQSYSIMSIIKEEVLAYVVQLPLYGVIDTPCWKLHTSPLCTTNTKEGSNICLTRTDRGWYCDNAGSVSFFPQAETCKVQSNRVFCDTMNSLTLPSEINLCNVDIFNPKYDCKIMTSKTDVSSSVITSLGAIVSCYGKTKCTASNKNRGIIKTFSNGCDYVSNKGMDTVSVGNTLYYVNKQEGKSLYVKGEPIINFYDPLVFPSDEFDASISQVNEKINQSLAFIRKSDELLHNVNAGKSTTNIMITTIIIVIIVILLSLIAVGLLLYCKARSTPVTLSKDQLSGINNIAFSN
Experimental: The full-length wild-type RSV F protein was transiently expressed in HEK293T cells. Forty-eight hours post transfection, the cells were detached using an EDTA-containing buffer and the cell suspension with or without added compounds was heat-shocked for 10 min at 55 °C. The cells were stained with the CR9501 and CR9503 antibodies (1 µg ml^−1) directly labeled with AlexaFluor647 (Alexa Fluor® 647 Monoclonal Antibody Labeling Kit, Molecular Probes/Invitrogen). Propidium iodide (Molecular Probes/Invitrogen) was used as a live-dead stain. Flow Cytometry was performed on FACS Canto II instrument (BD Biosciences). The data were analyzed using FlowJo9.6.1 software. A single cell population was selected on the side and forward scatters dot-plot. Within this population, PI-negative cells were analyzed for staining with CR9501 and CR9503 antibodies. Mean fluorescence intensity was calculated and the values of the heat-shocked samples were normalized to untreated (37 °C) samples.

RSV A2 = assay: Viral titer in RSV-inoculated BALB/c mice; assay type: in vivo; details: single 40 mg kg−1 dose 1 h before infection
in vitro [15] = details: African green monkey; remark: listed apart in the source
Experimental: Briefly, black 384-well clear-bottom microtiter plates were filled in quadruplicate using a customized robot system with serial fourfold dilutions of compound in a final volume of 200 nl DMSO. Then, 20 µl of a Vero Bayer cell suspension (3.75 × 10^4 cells/ml) in culture medium was added to each well followed by the addition of 20 µl PIV-3-eGFP virus (MOI = 1) in culture medium, or 20 µl culture medium for cell controls, using a multidrop dispenser.

[16] = system: rgRSV224 in human bronchoepithelial cells (HBECs); assay: Antiviral potency in air-liquid cultures of HBECs infected with rgRSV224
HIV-1 IIIB virus = assay: HIV-1 assay in MT4-LTR-Luc cells; assay type: cell-based; details: Human immunodeficiency virus 1, IIIB; mean of at least 3 experiments
Experimental: as §1

DENV-2 = assay: microbe, parasite or virus in culture; assay type: cell-based; details: Dengue virus, read-out: EC50 DENV
[17] = dog
in vitro [18] = details: human; remark: listed apart in the source
in vivo [19] = details: 10 mg/kg
[20] = system: soluble prefusion ectodomain of F protein; details: DSF
[21] = target: prefusion-stabilized RSV F protein (DS-Cav1) (respiratory syncytial virus strain A2); assay: crystal structure
[22] = mock-treated rgRSV224 during in vitro selection procedure, read-out: EC50 wild-type strain (untreated control)
[23] = RSV-infected, single 40 mg kg−1 p.o., BAL, mean ± s.e.m., n=6
[24] = 25 mg kg−1 daily starting 1 day after infection
[25] = HBECs, 100 nM, 6 or 24 h after onset of infection

Cc1cn2nc([C@@H]3CCCCN3C(=O)c3cc(Cl)ccc3NS(C)(=O)=O)cc2nc1N1CC[C@H](N)C1 [GS-5806, reference compound]
EC50 (rgRSV224; [22]): 1e-10 M
EC50 (rgRSV224; read-out: EC50 parent strain (rgRSV224)): 1e-10 M
FC (fold change over wild-type strain) mutant strain D489Y ([1]; mutant selected with JNJ-53718678): > 50,000
FC (fold change over wild-type strain) mutant strain L141W [2]: 379

CS(=O)(=O)CCCn1c(Cn2c(=O)n(CC(F)(F)F)c3ccncc32)cc2cc(Cl)ccc21 [JNJ-53718678]
Vd (in vivo [3]; in vivo, iv, 1 mg/kg): 2.8 L/kg
AUC(0-inf) (in vivo [3]; in vivo, po, 5 mg/kg): 9690 ng·h/mL
Cmax (in vivo [3]; in vivo, po, 5 mg/kg): 1120 ng/mL
Tmax (in vivo [3]; in vivo, po, 5 mg/kg): 1.7 h
half-life (in vivo [3]; plasma): 4.1 h
clearance (in vivo [3]; plasma, iv, 1 mg/kg): 9 mL/min/kg
reduction of influx of neutrophils ([4]; BALB/c mice, single 40 mg kg−1 dose 1 h before infection): ~ 5.5 fold
CD4+ T cells, mean cell number [4, 23]: 986 ± 113
CD8+ T cells, mean cell number [4, 23]: 2,757 ± 447
Monocytes (CD115+ infiltrating into the lung), mean cell number [4, 23]: 33 ± 9
NK cells, mean cell number [4, 23]: 1,059 ± 130
Neutrophils, mean cell number [4, 23]: 160 ± 40
T cells, mean cell number [4, 23]: 2,869 ± 671
effect of D489Y mutation on binding affinity to prefusion F [5]: dramatic reduction
concentration required for inhibition of the infection rate, D489Y mutant RSV (D489Y mutant RSV): 10 µM
EC50 (CVB): 3.73 µM
CC50 at 2 days [6]: 21.6 µM
CC50 at 3 days (in vitro [7]): > 25 µM
EC50 (recombinant MV): > 100 µM
concentration required for inhibition of the infection rate, L141W mutant RSV (L141W mutant RSV): 100 nM
EC50 (recombinant PIV-3 strain): 26.3 µM
EC50 (HRV 1b): > 100 µM
EC50 (CMV-AD169-eGFP virus): 17.4 µM
effect of L141W mutation on binding affinity to prefusion F [8]: dramatic reduction
binding stoichiometry [9]: one inhibitor per trimer
Kd ([9]; read-out: equilibrium dissociation constant (KD)): 0.0074 µM
activity against RSV strains from both A and B subtypes (RSV A and B strains): highly active
reduction of the viral RNA titer in BALF and lavaged-lung tissue vs vehicle (RSV M37 strain; [24]): > 95%
reduction of the viral RNA titer in BALF vs vehicle (RSV M37 strain; [24]): ~ 22 fold
reduction of the viral RNA titer in lavaged-lung tissue vs vehicle (RSV M37 strain; [24]): ~43 fold
microscopic lung lesions (RSV M37 strain; 25 mg kg−1 initiated 1 day after infection): lacked microscopic lesions
formation of gross RSV-associated lung lesions (RSV M37 strain; once daily starting 1 day after infection): complete inhibition
RSV infectious titer in BALF and lavaged-lung tissue (RSV M37 strain; oral once daily 1, 5 or 25 mg kg−1 starting 1 day after infection, Day 6): (almost) complete eradication
improvement of activity as compared to BMS-433771 (rgRSV224): > 10 fold
EC50 (rgRSV224; [22]): 1.6e-09 M
EC50 (rgRSV224; pEC50 = -Log10(EC50)(M), preliminary SAR, read-out: pEC50 (converted)): 5.01e-10 M
EC50 (HRV 16): > 100 µM
decrease of the RSV titer in both BALF and lavaged-lung tissue (Long strain RSV; 40 mg kg−1 once daily from 24 h until Day 3 post-inoculation): 1.5 log10
decrease of RSV titer in lungs vs vehicle group (Long strain RSV; single oral prophylactic dose 100 mg kg−1, 1 h before infection, on average): 100 fold
reduction of the viral titer (Long strain RSV; single-dose therapeutic treatment 40 mg kg−1, 24 h after infection): moderate reduction
EC50 ([1]; rgRSV224 carrying a D489Y resistance mutation in F, read-out: EC50 (mutant RSV)): 4.1 µM
EC50 (recombinant hMPV): 73 µM
binding to post-fusion RSV F (post-fusion RSV F): did not bind
CCL2 mean concentration in BALF [10]: 118 ± 17 pg/mL
CCL3 mean concentration in BALF [10]: 77 ± 11 pg/mL
CCL5 mean concentration in BALF [10]: 111 ± 13 pg/mL
CXCL1 mean concentration in BALF [10]: 145 ± 23 pg/mL
CXCL9 mean concentration in BALF [10]: 1,878 ± 135 pg/mL
CXCL10 mean concentration in BALF [10]: 2,265 ± 332 pg/mL
IFN mean concentration in BALF [10]: 465 ± 109 pg/mL
IL-1 mean concentration in BALF [10]: 171 ± 8 pg/mL
IL-6 mean concentration in BALF [10]: 29 ± 5 pg/mL
IL-12p40 mean concentration in BALF [10]: 0.7 ± 0.4 pg/mL
IL-17 mean concentration in BALF [10]: 3.2 ± 0.3 pg/mL
CC50 at 3 days (in vitro [11]): > 25 µM
CC50 (HeLa RH cells): > 100 µM
EC50 [12]: 24.3 µM
CC50 at 4 days (in vitro [13]): > 100 µM
fraction of prefusion F on the surface of the cells after heat shock [14]: concentration-dependent increase
viral titer in BALF and lavaged lung (RSV A2): significant decrease
CC50 (in vitro [15]): > 100 µM
CC50 at 2 days (in vitro [15]): > 100 µM
reduction of viral replication vs non-treated cells [16, 25]: ~ 1.3 log10
reduction of viral titer vs non-treated cells [16, 25]: ~ 1.3 log10
EC50 ([16]; human respiratory syncytial virus, read-out: calculated EC50): 0.0012 µM
EC50 (HIV-1 IIIB virus): 13.5 µM
EC50 (DENV-2): 17.7 µM
F ([17]; PO 5 mg kg−1 vs IV 1 mg kg−1): 89%
CLp as fraction of LBF ([17]; male, Beagle, in vivo, iv, 1 mg/kg): ~ 27 % LBF
CC50 at 5 days (in vitro [18]): > 100 µM
Cmax (in vivo [19]): 254 ng/mL
Tmax (in vivo [19]): 1 h
AUC(0-t) (in vivo [19]; AUC0-7 lung): 2020 ng·h/mL
AUC(0-t) (in vivo [19]; AUC0-7 plasma): 680 ng·h/mL
melting temperature (Tm) of soluble prefusion F ectodomain [20]: concentration-dependent increase

prefusion-stabilized RSV F protein (DS-Cav1) (domain or fragment)
stoichiometry N [21]: 3
